Our source for the AC50 values is patent US20250171437A1 (Agios Pharmaceuticals,Inc., priority 2022, published 2025).

The term AC50 denotes the concentration at which the activity in the assay is half-maximal.

The assay deals with T1, human PAH with the R408W mutation (A375 R408W cells) (Homo sapiens, UniProt P00439, R408W).
T1 construct: expressed in transfected cells
T1 sequence (P00439 1-452 R408W): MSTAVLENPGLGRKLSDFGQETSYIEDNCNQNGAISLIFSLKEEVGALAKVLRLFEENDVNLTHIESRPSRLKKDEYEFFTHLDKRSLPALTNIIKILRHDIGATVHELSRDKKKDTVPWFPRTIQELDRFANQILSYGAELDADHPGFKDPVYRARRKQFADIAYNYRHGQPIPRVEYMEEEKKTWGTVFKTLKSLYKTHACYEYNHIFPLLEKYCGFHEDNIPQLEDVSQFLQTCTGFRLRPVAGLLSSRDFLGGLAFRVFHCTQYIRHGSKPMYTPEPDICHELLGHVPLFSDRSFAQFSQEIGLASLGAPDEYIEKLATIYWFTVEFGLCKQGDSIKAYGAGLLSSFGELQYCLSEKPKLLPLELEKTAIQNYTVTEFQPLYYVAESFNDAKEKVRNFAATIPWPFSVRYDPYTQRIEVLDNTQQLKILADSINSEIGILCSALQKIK
The assay is described as follows: Cell Based Phenylalanine Flux Assay. Conditions: 24 hrs with compound, then 20 μM sepiapterin and 800 μM 13C9,15N-Phenylalanine for 4 hours, 13C-Tyrosine by LC-MS, average where tested multiple times. In outline:
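LC-MS quantitation of 13C-tyrosine in media gave AC50 values. Stable A375 R408W PAH cells were preincubated 24 h with compound, then fed 800 μM labelled Phe plus 20 μM sepiapterin for 4 h. Dose curves were 10-point, tested in duplicate, averaged over repeat runs.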

Setting [1] is: A375 cells expressing R408W PAH.

For `O=C(c1cnn2cc(CN3CC(F)C3)ccc12)N1CCc2[nH]cnc2[C@@H]1c1nc2cc(F)ccc2o1` (single isomer, unassigned), the AC50 under setting [1] was no less than 5000 nM. `CC(C)(O)c1nc(C(F)F)c(C(=O)N2CCc3[nH]cnc3[C@H]2c2nc3c(F)cc(F)cc3o2)o1` [Example 299, (S)-(4-(4,6-difluorobenzo[d]oxazol-2-yl)-6,7-dihydro-1H-imidazo[4,5-c]pyridin-5(4H)-yl)(4-(difluoromethyl)-2-(2-hydroxypropan-2-yl)oxazol-5-yl)methanone]: the concentration at half-maximal activity (AC50) (A375 R408W cells) is no more than 500 nM. In the case of `O=C(c1ocnc1C(F)F)N1CCc2[nH]cnc2[C@@H]1c1nc2c(Br)cccc2o1` [Example 434, (R)-(4-(4-bromobenzo[d]oxazol-2-yl)-6,7-dihydro-1H-imidazo[4,5-c]pyridin-5(4H)-yl)(4-(difluoromethyl)oxazol-5-yl)methanone], the AC50 (A375 R408W cells) was no more than 500 nM. As for `CC(C)(O)c1cc(C(=O)N2CCc3[nH]cnc3C2c2nc3c(F)cccc3o2)on1` (centres unmarked), the AC50 under setting [1] fell in the range of 1000 to 5000 nM.

On to `O=C(c1nncn1C1CC1)N1CCc2[nH]cnc2C1c1nc2c(F)cccc2o1` (centres unmarked), for which, under setting [1], the AC50 is 1000 to 5000 nM.

With `O=C(c1ocnc1C(F)F)N1CCc2[nH]cnc2[C@H]1c1nc2cccc(F)c2o1` [Example 173, (S)-(4-(difluoromethyl)oxazol-5-yl)(4-(7-fluorobenzo[d]oxazol-2-yl)-6,7-dihydro-1H-imidazo[4,5-c]pyridin-5(4H)-yl)methanone], the AC50 (A375 R408W cells) was no more than 500 nM. Consider `O=C(c1nnc(N2CCC(F)CC2)o1)N1CCc2[nH]cnc2C1c1nc2cc(F)ccc2o1` (centres unmarked), for which the AC50 under setting [1] is 1000 to 5000 nM. Consider `CC(C)(O)c1nc(Br)c(C(=O)N2CCc3[nH]cnc3[C@H]2c2nc3c(F)cccc3o2)o1` [Example 252, (S)-(4-bromo-2-(2-hydroxypropan-2-yl)oxazol-5-yl)(4-(4-fluorobenzo[d]oxazol-2-yl)-6,7-dihydro-1H-imidazo[4,5-c]pyridin-5(4H)-yl)methanone], for which the AC50 (A375 R408W cells) was no more than 500 nM.

For the molecule `Cn1cc(-c2nnc(C(=O)N3CCc4[nH]cnc4[C@@H]3c3nc4ccccc4o3)o2)cn1` [Example 582, (R)-(4-(benzo[d]oxazol-2-yl)-6,7-dihydro-1H-imidazo[4,5-c]pyridin-5(4H)-yl)(5-(1-methyl-1H-pyrazol-4-yl)-1,3,4-oxadiazol-2-yl)methanone], the AC50 (A375 R408W cells) is 1000 to 5000 nM.

As for `Cc1cccc2nc(C3c4nc[nH]c4CCN3C(=O)c3ccnn3C3CC3)oc12` (centres unmarked), the AC50 under setting [1] fell in the range of 1000 to 5000 nM. As for `Cn1nc(Cl)cc1C(=O)N1CCc2[nH]cnc2[C@H]1c1nc2cc(F)ccc2o1` [Example 127, (S)-(3-chloro-1-methyl-1H-pyrazol-5-yl)(4-(5-fluorobenzo[d]oxazol-2-yl)-6,7-dihydro-1H-imidazo[4,5-c]pyridin-5(4H)-yl)methanone], the half-maximal activity concentration (AC50) (A375 R408W cells) is 500 to 1000 nM. Consider `Cn1cnc(-c2nnc(C(=O)N3CCc4[nH]cnc4C3c3nc4cc(F)ccc4o3)o2)c1` (centres unmarked), for which, under setting [1], the AC50 lay in the range of 1000 to 5000 nM.

With `COc1cccc2oc([C@@H]3c4nc[nH]c4CCN3C(=O)c3nnc(-c4ccccn4)o3)nc12` [Example 624, (S)-(4-(4-methoxybenzo[d]oxazol-2-yl)-6,7-dihydro-1H-imidazo[4,5-c]pyridin-5(4H)-yl)(5-(pyridin-2-yl)-1,3,4-oxadiazol-2-yl)methanone], the half-maximal activity concentration (AC50) (A375 R408W cells) is no more than 500 nM. Regarding `Cc1nc(CN(C)C)oc1C(=O)N1CCc2[nH]cnc2C1c1nc2cc(F)ccc2o1` (centres unmarked), under setting [1], the half-maximal activity concentration (AC50) was 1000 to 5000 nM.

Consider `CC(C)(O)c1nc(C(F)F)c(C(=O)N2CCc3[nH]cnc3[C@H]2c2nc3cc(Br)ccc3o2)o1` [Example 415, [(4S)-4-(5-bromo-1,3-benzoxazol-2-yl)-1,4,6,7-tetrahydroimidazo[4,5-c]pyridin-5-yl]-[4-(difluoromethyl)-2-(1-hydroxy-1-methyl-ethyl)oxazol-5-yl]methanone], for which the AC50 (A375 R408W cells) lay in the range of 500 to 1000 nM. On to `O=C(c1ccn(CC(F)F)n1)N1CCc2[nH]cnc2C1c1nc2cccc(F)c2o1` (centres unmarked), for which the AC50 under setting [1] lay within 1000 to 5000 nM. On to `Cc1ccc2nc([C@@H]3c4nc[nH]c4CCN3C(=O)c3nnc(-c4ccn(C(F)F)n4)o3)oc2c1` [Example 703, (S)-(5-(1-(difluoromethyl)-1H-pyrazol-3-yl)-1,3,4-oxadiazol-2-yl)(4-(6-methylbenzo[d]oxazol-2-yl)-6,7-dihydro-1H-imidazo[4,5-c]pyridin-5(4H)-yl)methanone], for which, where the note is “A375 R408W cells”, the AC50 was 500 to 1000 nM. On the same count and under the same terms, then `CC(C)(O)c1nc(C(F)F)c(C(=O)N2CCc3[nH]cnc3[C@H]2c2nc3cc(F)cc(F)c3o2)o1` [Example 307, (S)-(4-(5,7-difluorobenzo[d]oxazol-2-yl)-6,7-dihydro-1H-imidazo[4,5-c]pyridin-5(4H)-yl)(4-(difluoromethyl)-2-(2-hydroxypropan-2-yl)oxazol-5-yl)methanone], with no more than 500 nM; and `O=C(c1ocnc1C(F)F)N1CCc2[nH]cnc2[C@H]1c1nc2cc(Br)cc(F)c2o1` [Example 573, (S)-(4-(5-bromo-7-fluorobenzo[d]oxazol-2-yl)-6,7-dihydro-1H-imidazo[4,5-c]pyridin-5(4H)-yl)(4-(difluoromethyl)oxazol-5-yl)methanone], with no more than 500 nM. With `Cn1nc(C(F)F)nc1C(=O)N1CCc2[nH]cnc2[C@H]1c1nc2ccccc2o1` [Example 561, (S)-(4-(benzo[d]oxazol-2-yl)-6,7-dihydro-1H-imidazo[4,5-c]pyridin-5(4H)-yl)(3-(difluoromethyl)-1-methyl-1H-1,2,4-triazol-5-yl)methanone], for the setting “A375 R408W cells”, the half-maximal activity concentration (AC50) lay within 500 to 1000 nM. On the same count and under the same terms, then `O=C(c1oc(-c2ccncn2)nc1C(F)F)N1CCc2[nH]cnc2[C@H]1c1nc2cc(F)ccc2o1` [Example 526, (S)-(4-(difluoromethyl)-2-(pyrimidin-4-yl)oxazol-5-yl)(4-(5-fluorobenzo[d]oxazol-2-yl)-6,7-dihydro-1H-imidazo[4,5-c]pyridin-5(4H)-yl)methanone], with no more than 500 nM. In the case of `O=C(c1ocnc1C(F)F)N1CCc2[nH]cnc2[C@@H]1c1nc2c(F)c(F)ccc2o1` [Example 349, (R)-(4-(4,5-difluorobenzo[d]oxazol-2-yl)-6,7-dihydro-1H-imidazo[4,5-c]pyridin-5(4H)-yl)(4-(difluoromethyl)oxazol-5-yl)methanone], the AC50 (A375 R408W cells) lay within 500 to 1000 nM.

Turning to `O=C(c1nnc(-c2ccn(C(F)F)n2)o1)N1CCc2[nH]cnc2[C@@H]1c1nc2ccccc2o1` [Example 845, (R)-(4-(benzo[d]oxazol-2-yl)-6,7-dihydro-1H-imidazo[4,5-c]pyridin-5(4H)-yl)(5-(1-(difluoromethyl)-1H-pyrazol-3-yl)-1,3,4-oxadiazol-2-yl)methanone], the AC50 (A375 R408W cells) lay in the range of 1000 to 5000 nM.

For the molecule `Cn1ccc(-c2nnc(C(=O)N3CCc4[nH]cnc4[C@@H]3c3nc4ccccc4o3)o2)n1` [Example 844, (R)-(4-(benzo[d]oxazol-2-yl)-6,7-dihydro-1H-imidazo[4,5-c]pyridin-5(4H)-yl)(5-(1-methyl-1H-pyrazol-3-yl)-1,3,4-oxadiazol-2-yl)methanone], the AC50 (A375 R408W cells) lay in the range of 500 to 1000 nM.

In the case of `O=C(c1ccnn1CC(F)F)N1CCc2[nH]cnc2[C@H]1c1nc2ccccc2o1` [Example 835, (S)-(4-(benzo[d]oxazol-2-yl)-6,7-dihydro-1H-imidazo[4,5-c]pyridin-5(4H)-yl)(1-(2,2-difluoroethyl)-1H-pyrazol-5-yl)methanone], for the setting “A375 R408W cells”, the AC50 is no more than 500 nM.

In the case of `O=C(c1oc(-c2cncnc2)nc1C(F)F)N1CCc2[nH]cnc2[C@@H]1c1nc2cc(F)ccc2o1` [Example 405, (R)-(4-(difluoromethyl)-2-(pyrimidin-5-yl)oxazol-5-yl)(4-(5-fluorobenzo[d]oxazol-2-yl)-6,7-dihydro-1H-imidazo[4,5-c]pyridin-5(4H)-yl)methanone], under “A375 R408W cells”, the half-maximal activity concentration (AC50) was 500 to 1000 nM. `Cc1cccc2nc([C@@H]3c4nc[nH]c4CCN3C(=O)c3cc(C(F)F)nn3C)oc12` [Example 735]: the half-maximal activity concentration (AC50) (A375 R408W cells) was no more than 500 nM.

`COc1ccc2oc([C@H]3c4nc[nH]c4CCN3C(=O)c3nc(C(F)F)nn3C)nc2c1` [Example 550, (R)-(3-(difluoromethyl)-1-methyl-1H-1,2,4-triazol-5-yl)(4-(5-methoxybenzo[d]oxazol-2-yl)-6,7-dihydro-1H-imidazo[4,5-c]pyridin-5(4H)-yl)methanone]: the concentration at half-maximal activity (AC50) (A375 R408W cells) fell in the range of 1000 to 5000 nM. On to `O=C1CN(Cc2ccc3c(C(=O)N4CCc5[nH]cnc5C4c4nc5cc(F)ccc5o4)cnn3c2)CCN1` (centres unmarked), for which the AC50 under setting [1] is no less than 5000 nM. As for `CC(C)(O)c1nc(C(F)F)c(C(=O)N2CCc3[nH]cnc3[C@@H]2c2nc3cc(Br)cc(F)c3o2)o1` [Example 572, (R)-(4-(5-bromo-7-fluorobenzo[d]oxazol-2-yl)-6,7-dihydro-1H-imidazo[4,5-c]pyridin-5(4H)-yl)(4-(difluoromethyl)-2-(2-hydroxypropan-2-yl)oxazol-5-yl)methanone], the concentration at half-maximal activity (AC50) (A375 R408W cells) is no more than 500 nM. Consider `CC(C)(O)c1nc(C(F)F)c(C(=O)N2CCc3[nH]cnc3[C@@H]2c2nc3ccccc3o2)o1` [Example 469, (R)-(4-(benzo[d]oxazol-2-yl)-6,7-dihydro-1H-imidazo[4,5-c]pyridin-5(4H)-yl)(4-(difluoromethyl)-2-(2-hydroxypropan-2-yl)oxazol-5-yl)methanone], for which the concentration at half-maximal activity (AC50) (A375 R408W cells) lay within 1000 to 5000 nM. On to `Cc1nc(C(C)O)oc1C(=O)N1CCc2[nH]cnc2C1c1nc2ccc(F)cc2o1` (centres unmarked), for which, under setting [1], the AC50 fell in the range of 1000 to 5000 nM.
